Assay results as given in article PMC10186366 (ACS Pharmacology & Translational Science, 2023).
Like-named read-outs stand apart in the source and are kept apart here.

Legend:
human ATIC (AICARFTase) = biological target: T1, human ATIC (AICARFTase) (Homo sapiens, UniProt P31939); assay: In vitro AICARFTase (ATIC) enzyme assay (THF formation from 10-CHOTHF); type: biochemical; conditions: monoglutamyl antifolates; mean (standard error), at least three replicate assays; tested up to 200 μM
T1 construct: full-length human ATIC; made in house; host or cells: E. coli Rosetta (DE3)pLysS
Experimental: We directly tested inhibition potencies by in vitro assays using purified GARFTase and ATIC (AICARFTase) to calculate inhibition dissociation constants (Ki’s) (Table 2).[45]
N-terminal hexahistidine-tagged GARFTase (formyltransferase domain; residues 808–1010) and full-length human ATIC were expressed in Rosetta (DE3)pLysS cells.[45],[48] Cultures (1 L) were grown at 37 °C in LB media with 100 μg/mL ampicillin and 34 μg/mL chloramphenicol until OD600 reached 0.6. Isopropyl β-D-1-thiogalactopyranoside (500 μM) was added, and the cells were incubated at 20 °C for 16–18 h. The cultures were pelleted and resuspended in 40 mL of 25 mM Tris–HCl, pH 7.5, 300 mM NaCl, 5 mM β-mercaptoethanol (β-ME), 10 mM CaCl2, 10 mM MgCl2, 40 mg lysozyme, and 8 U DNAse I (Sigma). The cells were lysed by emulsification.
His-ATIC was purified from the lysate by immobilized metal affinity chromatography with a 4 mL Ni-NTA column (Gold Biotechnology).[45] The column was washed with 5 CV of 25 mM Tris–HCl, pH 7.5, 300 mM NaCl, 10 mM imidazole, and 5 mM β-ME (wash buffer) followed by 5 CV of the wash buffer containing 25 mM imidazole. The protein was eluted with 5 CV of the elution buffer containing components of the wash buffer with 300 mM imidazole. Further purification was by ÄKTA FPLC (GE Healthcare) with a Superdex 200 16/60 (GE Healthcare) column equilibrated with 20 mM Tris–HCl, pH 7.5, 150 mM NaCl, 50 mM KCl, 5 mM EDTA, and 5 mM dithiothreitol (DTT). His-ATIC was stored at 150 μM at 4 °C in this buffer (up to 6 months) or at 100 μM with 20% glycerol at −80 °C for longer-term storage.
GARFTase catalytic activity was measured by monitoring THF formation from 10-CHOTHF.[32],[45],[48] GARFTase assays included 40 μM 10-CHO-THF, 50 nM His-GARFTase, 15 μM α,β-GAR, and a range of inhibitor concentrations in 25 mM Tris–HCl, pH 8.0, 300 mM NaCl, and 5 mM β-ME at 37 °C.[45] AICARFTase catalytic activity was measured by monitoring THF formation from 10-CHOTHF.[54] Reactions included 50 μM 10-CHOTHF, 100 nM His-ATIC, 50 μM ZMP, and inhibitors in 32.6 mM Tris–HCl, pH 7.5, 25 mM KCl, and 5 mM β-ME at 25 ° C.[45] Kinetic measurements were recorded in triplicate in a UV-transparent 96-well plate (Costar 3635) at 298 nm using a BioTek Synergy Neo2 Plate Reader. Initial slopes were graphed against inhibitor concentrations and fit to a three-parameter nonlinear regression to calculate IC50 values for each compound (GraphPad Prism 8.0). […] SHMT2 activity was assayed by monitoring NADH production with a coupled assay including 500 nM His-SHMT2 and 10 μM His-MTHFD2 ([…] molar ratio His-SHMT2/His-MTHFD2). NADH production by His-MTHFD2 was monitored by fluorescence at 470 nm with excitation at 360 nm (Synergy Neo2 Biotek plate reader). Inhibition constants (Ki’s) were calculated from the IC50 values using the equation Ki = IC50/([S]/KM + 1) and the Km and substrate concentration for THF. The THF concentration in the reaction was […]. The calculated Km value for THF with His-SHMT2 was 62.8 μM.

human GARFTase = biological target: T2, human GARFTase (Homo sapiens, UniProt P22102); assay: In vitro GARFTase enzyme assay (THF formation from 10-CHOTHF); type: biochemical
T2 construct: GARFTase (formyltransferase domain; residues 808–1010); made in house; host or cells: E. coli Rosetta (DE3)pLysS
T2 sequence (P22102 808-1010): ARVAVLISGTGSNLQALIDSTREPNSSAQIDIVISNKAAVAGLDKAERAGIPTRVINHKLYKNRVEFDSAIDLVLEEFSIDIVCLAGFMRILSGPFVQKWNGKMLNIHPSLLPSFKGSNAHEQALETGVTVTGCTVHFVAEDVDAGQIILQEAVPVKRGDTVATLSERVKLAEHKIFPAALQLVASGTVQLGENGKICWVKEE
Experimental: His-GARFTase was purified from the lysate by ÄKTA FPLC (GE Healthcare) with a Ni-NTA column (Qiagen, Valencia, CA).[48] The column was washed with 5 column volumes (CV) of 25 mM Tris–HCl, pH 8, 300 mM NaCl, 10% glycerol, and 5 mM β-ME. His-GARFTase was eluted with a 0 to 75% gradient of 25 mM Tris–HCl, pH 8, 300 mM NaCl, 10% glyercol, 300 mM imidazole, and 5 mM β-ME over 10 CV. Further purification involved size exclusion chromatography on a Superdex 75 16/60 (GE Healthcare) column with 25 mM Tris–HCl, pH 8, 10 mM β-ME, and 300 mM NaCl. Purified His-GARFTase was stored at 90 μM in 20% glycerol at −80 °C.
GARFTase catalytic activity was measured by monitoring THF formation from 10-CHOTHF.[32],[45],[48] […] Initial slopes were graphed against inhibitor concentrations and fit to a three-parameter nonlinear regression to calculate IC50 values for each compound (GraphPad Prism 8.0). […] Inhibition constants (Ki’s) were calculated from the IC50 values using the equation Ki = IC50/([S]/KM + 1) and the Km and substrate concentration for THF.

[1] = monoglutamyl antifolates, mean (standard error), at least three replicate assays, tested up to 150 μM, read-out: GARFTase Ki

T1 sequence (P31939 whole entry): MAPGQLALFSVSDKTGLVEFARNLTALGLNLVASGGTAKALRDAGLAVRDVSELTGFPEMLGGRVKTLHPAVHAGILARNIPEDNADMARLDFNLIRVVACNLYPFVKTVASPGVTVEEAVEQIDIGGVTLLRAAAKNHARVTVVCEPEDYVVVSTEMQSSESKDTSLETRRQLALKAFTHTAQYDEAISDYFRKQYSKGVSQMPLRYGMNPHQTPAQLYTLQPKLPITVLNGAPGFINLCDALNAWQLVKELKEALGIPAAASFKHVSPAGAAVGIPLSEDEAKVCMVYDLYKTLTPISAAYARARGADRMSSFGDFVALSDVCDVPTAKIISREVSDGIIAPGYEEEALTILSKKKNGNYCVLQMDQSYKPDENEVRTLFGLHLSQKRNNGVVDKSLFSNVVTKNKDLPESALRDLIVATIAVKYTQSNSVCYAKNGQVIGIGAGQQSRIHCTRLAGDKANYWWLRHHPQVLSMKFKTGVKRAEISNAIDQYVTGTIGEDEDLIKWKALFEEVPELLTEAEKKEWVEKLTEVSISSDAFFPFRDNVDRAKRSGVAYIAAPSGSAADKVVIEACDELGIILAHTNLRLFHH

Row | Compound | Ki (human ATIC (AICARFTase)) | Ki (human GARFTase; [1]) | Ki (human GARFTase) | GARFTase potency of 9 relative to 2 (human GARFTase; ratio of Ki values) | GARFTase potency of 9 relative to 10 (human GARFTase; ratio of Ki values)
1 | Nc1nc2sc(CCCCc3cccc(C(=O)N[C@@H](CCC(=O)O)C(=O)O)n3)cc2c(=O)[nH]1 [Compound 3, (6-(4-(2-Amino-4-oxo-3,4-dihydrothieno[2,3-d]pyrimidin-6-yl)butyl)picolinoyl)-L-glutamic Acid] | 18.4 µM | 26.7 µM |  |  | 
2 | Nc1nc2sc(CCCCc3ccc(C(=O)N[C@@H](CCC(=O)O)C(=O)O)nc3)cc2c(=O)[nH]1 [Compound 4, (5-(4-(2-Amino-4-oxo-3,4-dihydrothieno[2,3-d]pyrimidin-6-yl)butyl)picolinoyl)-L-glutamic Acid] | 12.1 µM |  | > 150 µM |  | 
3 | Nc1nc2sc(CCCCc3cnc(C(=O)N[C@@H](CCC(=O)O)C(=O)O)c(F)c3)cc2c(=O)[nH]1 [Compound 5, (5-(4-(2-Amino-4-oxo-3,4-dihydrothieno[2,3-d]pyrimidin-6-yl)butyl)-3-fluoropicolinoyl)-L-glutamic Acid] | > 200 µM | 13.7 µM |  |  | 
4 | Nc1nc2sc(CCCc3ccc(C(=O)N[C@@H](CCC(=O)O)C(=O)O)c(F)c3)cc2c(=O)[nH]1 [Compound 6, (4-(3-(2-Amino-4-oxo-3,4-dihydrothieno[2,3-d]pyrimidin-6-yl)propyl)-2-fluorobenzoyl)-L-glutamic Acid] | 7.3 µM | > 150 µM |  |  | 
5 | Nc1nc2sc(CCCCc3csc(C(=O)N[C@@H](CCC(=O)O)C(=O)O)c3F)cc2c(=O)[nH]1 [Compound 9, (4-(4-(2-Amino-4-oxo-3,4-dihydrothieno[2,3-d]pyrimidin-6-yl)butyl)-3-fluorothiophene-2-carbonyl)-L-glutamic Acid] | 23.7 µM |  | 0.17 µM | 17 fold | 25 fold

Now from value to compound, other results behind:

Row | Ki (human ATIC (AICARFTase)) | Ki (human GARFTase; [1]) | Compound | Ki (human GARFTase) | GARFTase potency of 9 relative to 2 (human GARFTase; ratio of Ki values) | GARFTase potency of 9 relative to 10 (human GARFTase; ratio of Ki values)
6 | > 200 µM |  | Nc1nc2sc(CCCc3ccc(C(=O)N[C@@H](CCC(=O)O)C(=O)O)cc3)cc2c(=O)[nH]1 [Compound 1] |  |  | 
7 | 19.4 µM | > 150 µM | Nc1nc2sc(CCCCc3ccc(C(=O)N[C@@H](CCC(=O)O)C(=O)O)c(F)c3)cc2c(=O)[nH]1 [Compound 7, (4-(4-(2-Amino-4-oxo-3,4-dihydrothieno[2,3-d]pyrimidin-6-yl)butyl)-2-fluorobenzoyl)-L-glutamic Acid] |  |  | 
8 | 14.5 µM | 3.1 µM | Nc1nc2sc(CCCc3csc(C(=O)N[C@@H](CCC(=O)O)C(=O)O)c3F)cc2c(=O)[nH]1 [Compound 8, (4-(3-(2-Amino-4-oxo-3,4-dihydrothieno[2,3-d]pyrimidin-6-yl)propyl)-3-fluorothiophene-2-carbonyl)-L-glutamic Acid] |  |  | 
